Data set [1] is described as follows: Cytotoxicity against human GSC18 cells assessed as reduction in cell viability after 4 days by MTS assay. Format: functional, cell-based. To be noted: GSC18, 96 h.
Data set [2] in a line: Cytotoxicity against human GSC12 cells assessed as reduction in cell viability after 4 days by MTS assay. In kind it is functional, cell-based. As to conditions: GSC12, 96 h. Background: Tetrazolium assays rely on reduction of a dye to a coloured formazan, in cell work by metabolically active cells.
Data set [3] has as its system HEK-293T. In words: Cytotoxicity against human 293T cells assessed as reduction in cell viability after 4 days by MTS assay. Format: cell-based. To be noted: 96 h.
Data set [4] in a line: Cytotoxicity against human HAC cells assessed as reduction in cell viability after 4 days by MTS assay. Format: cell-based. As to conditions: 96 h.
Data set [5] is filed under the species Homo sapiens. In words: Cytotoxicity against human GSC18 cells assessed as cell growth inhibition at 25 uM by phenotypic screening-based assay. Format: functional.
The species named for data set [6] is Homo sapiens. Briefly: Cytotoxicity against human GSC12 cells assessed as cell growth inhibition at 25 uM by phenotypic screening-based assay. In kind it is functional.
The subject of data set [7] is HEK-293T. Briefly: Cytotoxicity against human 293T cells assessed as cell growth inhibition at 25 uM by phenotypic screening-based assay.
Data set [8] can be described thus: Cytotoxicity against human HAC cells assessed as cell growth inhibition at 25 uM by phenotypic screening-based assay.
The species entered for data set [9] is Homo sapiens. Briefly: Antiproliferative activity against human GSC18 cells assessed as reduction in BrdU-positive proliferating cells at 25 uM after 72 hrs by BrdU incorporation assay relative to DMSO. Format: functional, cell-based. (Dividing cells build labelled thymidine or BrdU into new DNA.)
The species entered for data set [10] is Homo sapiens. In words: Induction of apoptosis in human GSC18 cells assessed as increase in caspase-3 positive apoptotic cells at 25 uM by immunofluorescence-staining based microscopic analysis. In kind it is functional, cell-based.
The species named for data set [11] is Homo sapiens. Briefly: Induction of extrinsic apoptosis in human GSC18 cells assessed as increase in IL1 mRNA levels at 25 uM after 10 days by RT-PCR analysis relative to DMSO. In kind it is functional, cell-based.
The species named for data set [12] is Homo sapiens. Briefly: Induction of extrinsic apoptosis in human GSC18 cells assessed as increase in TNFalpha mRNA levels at 25 uM after 10 days by RT-PCR analysis relative to DMSO. Format: functional, cell-based.
Data set [13] is filed under the species Homo sapiens. Briefly: Induction of apoptosis in human GSC18 cells assessed as increase in calpain1 mRNA levels at 25 uM after 10 days by RT-PCR analysis relative to DMSO. Format: functional, cell-based.
Data set [14] is filed under the species Homo sapiens. In words: Induction of apoptosis in human GSC18 cells assessed as increase in caspase12 mRNA levels at 25 uM after 10 days by RT-PCR analysis relative to DMSO. Format: functional, cell-based.
For data set [15], the species on record is Homo sapiens. Briefly: Induction of intrinsic apoptosis in human GSC18 cells assessed as increase in bcl-2 mRNA levels at 25 uM after 10 days by RT-PCR analysis relative to DMSO. Format: functional, cell-based.
The species entered for data set [16] is Homo sapiens. In words: Induction of intrinsic apoptosis in human GSC18 cells assessed as increase in bax mRNA levels at 25 uM after 10 days by RT-PCR analysis relative to DMSO. Format: functional, cell-based.
Data set [17] is filed under the species Homo sapiens. Briefly: Induction of intrinsic apoptosis in human GSC18 cells assessed as increase in bid mRNA levels at 25 uM after 10 days by RT-PCR analysis relative to DMSO. In kind it is functional, cell-based.
The species named for data set [18] is Homo sapiens. Briefly: Induction of intrinsic apoptosis in human GSC18 cells assessed as increase in apaf1 mRNA levels at 25 uM after 10 days by RT-PCR analysis relative to DMSO. Format: functional, cell-based.
Data set [19] concerns Homo sapiens. In words: Antiproliferative activity against human GSC18 cells assessed as damage to clonal spheres morphology at 25 uM administered 2 weeks post clonal sphere formation measured after 10 days by crystal violet-staining based assay. Format: functional, cell-based.
Data set [20] relates to Homo sapiens. In words: Antiproliferative activity against human GSC18 cells assessed as decrease in number of clonal spheres at 25 uM administered 2 weeks post clonal sphere formation measured after 10 days by crystal violet-staining based assay. Format: functional, cell-based.

The values below come from ChEMBL document CHEMBL4219098, “Unprecedented sugar bridged bisindoles selective inhibiting glioma stem cells” (Bioorg Med Chem, 2018).

Active and inactive are the calls of the source. The calls are words filed in the database; no cut-off is given here.

For `CC(=O)O[C@H]1C(=O)[C@@]2(C)[C@H]([C@H](OC(=O)c3ccccc3)[C@]3(O)C[C@H](OC(=O)[C@H](O)[C@@H](NC(=O)c4ccccc4)c4ccccc4)C(C)=C1C3(C)C)[C@]1(OC(C)=O)CO[C@@H]1C[C@@H]2O` [PACLITAXEL], the 50% inhibitory concentration (IC50) in data set [1] was 10.4 µM; in [2], 12.5 µM; with HEK-293T [3] it was 0.0023 µM; in data set [4], 0.0121 µM.

For `C=C[C@H]1[C@H](O[C@@H]2O[C@H](CO[C@H]3C[C@@]45c6ccccc6N[C@]4(O3)[C@@H]3C[C@@H](/C(=C/C)C=[N+]3[O-])[C@H]5CC(=O)OC)[C@@H](O)[C@H](O)[C@H]2O)OC=C2C(=O)N3CCc4c([nH]c5ccccc45)[C@@H]3C[C@H]21`, the “growth inhibition (GI)” value in the data set filed under Homo sapiens [5] and in the data set listed under Homo sapiens [6] was “Active” each time. Further, the Activity result (in the data set on HEK-293T [7]; in data set [8]) was “Non-Toxic” throughout. Further, the IC50 in data set [1] is 16.1 µM; in data set [2], 20.7 µM; with HEK-293T [3] it was greater than 90 µM; in [4], greater than 90 µM. Moreover, the outcome in the data set listed under Homo sapiens [9], in the data set listed under Homo sapiens [10], in the data set listed under Homo sapiens [11], in the data set listed under Homo sapiens [12], in the data set with Homo sapiens [19] and in the data set on Homo sapiens [20] was Active. The result in the data set filed under Homo sapiens [13], in the data set listed under Homo sapiens [14], in the data set filed under Homo sapiens [15], in the data set listed under Homo sapiens [16], in the data set listed under Homo sapiens [17] and in the data set filed under Homo sapiens [18] was inactive.

As for `C=C[C@H]1[C@H](O[C@@H]2O[C@H](CO[C@H]3C[C@@]45c6ccccc6N[C@]4(O3)[C@@H]3C[C@@H](/C(=C\C)C=[N+]3[O-])[C@H]5CC(=O)OC)[C@@H](O)[C@H](O)[C@H]2O)OC=C2C(=O)N3CCc4c([nH]c5ccccc45)[C@@H]3C[C@H]21`, the “growth inhibition (GI)” value in the data set filed under Homo sapiens [5] and in the data set listed under Homo sapiens [6] was “Active” throughout. The Activity result (in the data set on HEK-293T [7]; in [8]) was “Non-Toxic” in each case. The IC50 in [1] was 19.2 µM; in data set [2], 30.9 µM; in the data set on HEK-293T [3], greater than 90 µM; in data set [4], greater than 90 µM. Also, the result in the data set filed under Homo sapiens [9], in the data set listed under Homo sapiens [10], in the data set filed under Homo sapiens [11], in the data set listed under Homo sapiens [12], in the data set on Homo sapiens [19] and in the data set on Homo sapiens [20] was Active. Besides, the outcome in the data set filed under Homo sapiens [13], in the data set filed under Homo sapiens [14], in the data set filed under Homo sapiens [15], in the data set filed under Homo sapiens [16], in the data set listed under Homo sapiens [17] and in the data set filed under Homo sapiens [18] was inactive.

Usually IC50 stands for the concentration that gives 50% inhibition.
